Data reported in US20080058281A1, “Skin Lightening Compositions Comprising Vitamines and Flavonoids” (priority 2004, published 2008).

System: Melanoderm (MatTek MEL-300-B) tissue, epidermal keratinocytes (NHEK) and melanocytes (NHM)
Assay: Melanoderm system: quantification of light (alkali-soluble) and dark (alkali-insoluble) melanin
Type: cell-based, human
Details: for Total Melanin: Melanoderm tissue, agents in medium at Table 1 concentrations (Pycnogenol 10 μg/ml, Vit C 30 μg/ml, Vit E 1 μM, Vit B12 1 ng/ml, Vit A 15 ng/ml, cysteine 10 μg/ml, niacinamide 10 μg/ml), control 6.93; for Ratio of light melanin (μg/g)/dark melanin (μg/g) / Dark Melanin / Light Melanin / Dark Melanin, change relative to control / Light Melanin, change relative to control: Table 1 concentrations; for Ratio of light melanin (μg/g)/dark melanin (μg/g): control 0.14; for Dark Melanin: alkali-insoluble melanin, control 6.08; for Dark Melanin / Light Melanin: OD 340 nm; for Light Melanin: alkali-soluble melanin, control 0.85; for Dark Melanin, change relative to control: value in brackets under Dark Melanin; for Light Melanin, change relative to control: value in brackets under Light Melanin
Procedure: In these examples, evaluation of the ability of various agents, individually and in combination, to influence levels of dark and light melanin was tested using the commercially available Melanoderm™ system.
The MelanoDerm™ MatTeks system consists of normal, human-derived epidermal keratinocytes (NHEK) and melanocytes (NHM) which have been cultured to form a multilayered, highly differentiated model of the human epidermis. The NHM within co-cultures undergo spontaneous melanogenesis leading to tissues of varying levels of pigmentation. The tissues are produced using serum free medium without artificial stimulators of melanogenesis such as TPA and IBMX. The cultures are grown on cell culture inserts at the air-liquid interface, allowing for simulated topical application of agents to be tested. Introduction of agents into the medium simulates systemic application.
On delivery, the melanoderms (MatTek MEL-300-B) were placed onto metal ring supports in a 6 well plate containing 5 ml of pre-warmed maintenance media (of EPI-100-MM-PRF), using aseptic technique as per MatTek's protocol. Incubation was carried out overnight at 37° C. and 4% CO2 to allow the melanoderms to recover and equilibrate fully. Once placed under these conditions the MEL-300 tissue, undergo melanogenesis and differentiation.
Treatment was initiated on the following morning. Agents to be tested were dissolved in appropriate solvents and added to warmed media at final concentrations pre-assessed for melanocyte toxicity. Each time the media was changed, the spent media was aspirated from the melanoderms and reserved for testing for toxicity (Lactate Dehydrogenase (Promega)) and Interleukin-1 release (R&D systems) and replaced with a fresh dose of media plus test agents whether within the media of the melanoderm. Melanoderms were returned to the incubator.
On observation of differences in darkening, microscopic and macroscopic darkening were recorded photographically. Harvesting the tissue of the melanoderm involved cutting away the tissue from its plastic support and was followed by quantification of melanin present post-treatment versus untreated.
Melanoderm samples were cut from the plastic holders and the wet weight of tissue measured. 200 μl 1M NaOH/8M urea was added to the melanoderm sample the tissue homogenised in a microfuge tube. Samples were whirlimixed at RT for 30 minutes on and off to release the soluble melanin. Samples were centrifuged at 13,000 rpm for 10 minutes and supernatant containing soluble melanin was removed to a fresh tube.
Protein was extracted from the supernatant by addition of 200 μl chloroform and then by mixing vigorously for 1 minute. Phases were separated by centrifugation at 13,000 rpm for 10 minutes. 150 μl of supernatant was added to a microtitre plate (in duplicate) and the OD 340 nm ascertained.
1M NaOH was added to the remaining pellet which contains the insoluble melanin and the sample vortexed for one minute. The sample was then incubated in a water bath at 37° C. for 96 hrs with daily mixing to released the insoluble melanin. The sample was centrifuged for 10 minutes at 13,000 rpm with 200 μl of chloroform and 190 μl of the supernatant taken to a fresh tube. The supernatant was centrifuged again and 150 μl removed to a microtitre plate for analysis of absorption at 340 nm.
Absolute melanin is calculated as the actual melanin quantity calculated from a previously determined light melanin standard curve: x=(y−0.003)/4.76423 (where x=concentration of melanin and y=optical density at 340 nm).

`N[C@@H](CS)C(=O)O` [Cysteine] was tested, and the “Total Melanin” value was 5.96 µg/g, the “Ratio of light melanin (μg/g)/dark melanin (μg/g)” value (shortened to “Ratio of light melanin”) was 0.13 and the “Dark Melanin” value was 5.27 µg/g. For the same compound, the “Light Melanin” value was 0.69 µg/g, the “Dark Melanin, change relative to control” value was “(−13.3%)” and the “Light Melanin, change relative to control” value was “(−18.8%)”.
With `NC(=O)c1cccnc1` [Niacinamide] the “Total Melanin” value was 8.10 µg/g, the “Ratio of light melanin” value was 0.13 and the “Dark Melanin” value was 7.16 µg/g. The “Light Melanin” value was 0.94 µg/g, the “Dark Melanin, change relative to control” value was “(+17.8%)” and the “Light Melanin, change relative to control” value was “(+10.6%)”.
With Vitamin A the “Total Melanin” value was 7.81 µg/g and the “Dark Melanin” value was 6.71 µg/g.
In the case of Vitamin B12, the “Total Melanin” value is reported as 7.93 µg/g, the “Ratio of light melanin” value is reported as 0.19 and the “Dark Melanin” value is reported as 6.66 µg/g. For the same compound, the “Light Melanin” value was 1.27 µg/g, the “Dark Melanin, change relative to control” value was “(+9.5%)” and the “Light Melanin, change relative to control” value was “(+49.4%)”.
